In publication PMC7413254 (Nature Communications, 2020):

Tests used:
Type in all cases: cell-based
[1] = target: T1, PfNT1 (Plasmodium falciparum, UniProt Q8IDM6); assay: cell-based; settings: trans-stimulation, solute 45 mM injected (estimated intracellular)
T1 construct: expressed in transfected cells; host or cells: Xenopus laevis oocytes (stage V-VI), cRNA-injected
Outline: (§1)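 Transport measured in Xenopus oocytes expressing the transporters, 1.5 h at 27.5 °C in ND96 pH 5.5 unless noted. For trans-stimulation, VF-6 injected in 25 nL ND96 at pH 5.0–7.0 or Na^+-free (choline) buffer; intracellular levels based on ~400 nL oocyte volume. Ten oocytes per treatment, ≥4 experiments.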

[2] = target: T2, PfCRT^Ecu1110 (Plasmodium falciparum, UniProt Q9N623, A220S/I356L/K76T/N326D); assay: cell-based; settings: for PfCRT-mediated [3H]CQ transport, trans-stimulation (% PfCRTEcu1110 control): PfCRTEcu1110 oocytes, normalised to oocyte type control; for [3H]CQ transport (% PfCRTDd2 control), trans-stimulation, PfCRTEcu1110: PfCRT-mediated component (background subtracted), sheet title says normalised to PfCRTDd2 control, mean ± SEM, SEM
Outline: as §1

[3] = target: T3, PfCRT^Dd2 (Plasmodium falciparum, UniProt Q9N623, A220S/I356T/K76T/M74I/N326S/N75E/Q271E/R371I); assay: cell-based; settings: for PfCRT-mediated [3H]CQ transport, trans-stimulation (% PfCRTDd2 control): PfCRTDd2 oocytes, normalised to oocyte type control; for [3H]CQ transport (% PfCRTDd2 control), trans-stimulation, PfCRTDd2: PfCRT-mediated component (background subtracted), mean ± SEM, SEM
Outline: as §1

[4] = target: PfCRT^3D7 (Plasmodium falciparum, UniProt Q8IBZ9); assay: cell-based; settings: for PfCRT-mediated [3H]CQ transport, trans-stimulation (% PfCRT3D7 control): PfCRT3D7 oocytes, normalised to oocyte type control; for [3H]CQ transport, PfCRT3D7 (% PfCRT3D7 control): trans-stimulation, solute 45 mM injected (estimated intracellular)
Outline: as §1

[5] = target: T2, PfCRT^Ecu1110; assay: [3H]CQ uptake into Xenopus oocytes, cis-inhibition by unlabelled solute; settings: for PfCRT-mediated [3H]CQ transport, cis-inhibition (% PfCRTEcu1110 control): PfCRTEcu1110 oocytes, background [3H]CQ accumulation subtracted, normalised to oocyte type control; for [3H]CQ transport (% PfCRTEcu1110 control), cis-inhibition, PfCRTEcu1110: PfCRT-mediated component (background subtracted), sheet title says normalised to PfCRTDd2 control, mean ± SEM, SEM
Outline: (§2)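 PfCRT-expressing and control oocytes: ND96 pH 5.5 → 1.5 h at 27.5 °C → ice-cold ND96 wash → 10% SDS lysis → scintillation count.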

[6] = target: T3, PfCRT^Dd2; assay: as above; settings: PfCRTDd2 oocytes, background [3H]CQ accumulation subtracted, normalised to oocyte type control
Outline: as §2

[7] = [test solute]i = 5 mM (intracellular)
[8] = [test solute]i = 45 mM (intracellular; 30 mM for some solutes due to solubility)
[9] = [test solute]i = 5 mM (injected)
[10] = [test solute]i = 45 mM (30 mM for some solutes due to solubility)

T1 sequence (Q8IDM6 whole entry): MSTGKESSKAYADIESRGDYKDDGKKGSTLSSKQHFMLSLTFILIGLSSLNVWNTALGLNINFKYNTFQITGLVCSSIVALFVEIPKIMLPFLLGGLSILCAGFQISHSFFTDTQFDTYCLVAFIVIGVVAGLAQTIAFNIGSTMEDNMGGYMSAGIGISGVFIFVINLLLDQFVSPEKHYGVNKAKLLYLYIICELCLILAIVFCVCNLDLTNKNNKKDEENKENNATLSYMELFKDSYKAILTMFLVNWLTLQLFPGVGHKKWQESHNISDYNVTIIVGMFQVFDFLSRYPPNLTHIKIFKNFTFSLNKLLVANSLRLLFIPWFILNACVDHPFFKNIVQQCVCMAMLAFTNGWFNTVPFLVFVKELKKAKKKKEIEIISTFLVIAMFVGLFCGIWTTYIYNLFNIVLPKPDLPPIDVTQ
T3 sequence (Q9N623 whole entry A220S/I356T/K76T/M74I/N326S/N75E/Q271E/R371I): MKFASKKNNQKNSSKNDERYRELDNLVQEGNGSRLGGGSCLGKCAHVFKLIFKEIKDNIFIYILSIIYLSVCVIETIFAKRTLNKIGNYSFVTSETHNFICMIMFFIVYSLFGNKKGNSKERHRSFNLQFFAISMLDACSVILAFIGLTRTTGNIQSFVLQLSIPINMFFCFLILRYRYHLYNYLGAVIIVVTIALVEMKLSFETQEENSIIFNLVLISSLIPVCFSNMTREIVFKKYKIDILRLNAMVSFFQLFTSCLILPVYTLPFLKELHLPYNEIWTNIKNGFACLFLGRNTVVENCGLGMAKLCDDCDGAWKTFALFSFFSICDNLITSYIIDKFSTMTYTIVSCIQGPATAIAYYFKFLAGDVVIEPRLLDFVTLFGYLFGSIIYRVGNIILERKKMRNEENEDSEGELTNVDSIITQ
T2 sequence (Q9N623 whole entry A220S/I356L/K76T/N326D): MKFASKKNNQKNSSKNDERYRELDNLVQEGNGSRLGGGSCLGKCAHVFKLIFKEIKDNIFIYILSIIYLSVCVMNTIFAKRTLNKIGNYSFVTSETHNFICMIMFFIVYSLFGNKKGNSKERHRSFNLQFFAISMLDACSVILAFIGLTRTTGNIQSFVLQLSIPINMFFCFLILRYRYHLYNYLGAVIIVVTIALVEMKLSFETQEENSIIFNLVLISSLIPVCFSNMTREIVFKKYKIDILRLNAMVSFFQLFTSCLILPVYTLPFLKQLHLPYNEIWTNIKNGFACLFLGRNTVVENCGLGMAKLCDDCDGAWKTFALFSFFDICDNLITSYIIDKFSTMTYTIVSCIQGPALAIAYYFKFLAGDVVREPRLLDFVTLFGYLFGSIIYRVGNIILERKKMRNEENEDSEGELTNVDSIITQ
Sequence of PfCRT^3D7 (Q8IBZ9 59-398): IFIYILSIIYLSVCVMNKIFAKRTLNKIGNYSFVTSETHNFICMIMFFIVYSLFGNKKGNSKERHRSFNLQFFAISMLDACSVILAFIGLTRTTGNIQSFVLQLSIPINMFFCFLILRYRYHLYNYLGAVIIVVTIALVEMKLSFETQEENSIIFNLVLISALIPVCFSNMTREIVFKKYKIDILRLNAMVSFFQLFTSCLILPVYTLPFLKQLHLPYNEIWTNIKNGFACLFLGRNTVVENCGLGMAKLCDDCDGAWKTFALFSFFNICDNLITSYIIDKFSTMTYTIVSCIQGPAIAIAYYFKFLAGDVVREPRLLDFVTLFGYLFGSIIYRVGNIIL

DLHAHKLR [DR-8]
[3H]CQ transport, PfNT1 (% PfCRTDd2 control) ([1]; Experiment 1): 3.43 % PfCRTDd2 control
[3H]CQ transport, PfNT1 (% PfCRTDd2 control) ([1]; Experiment 2): 3.47 % PfCRTDd2 control
[3H]CQ transport, PfNT1 (% PfCRTDd2 control) ([1]; Experiment 3): 3.21 % PfCRTDd2 control
[3H]CQ transport, PfNT1 (% PfCRTDd2 control) ([1]; Experiment 4): 3.51 % PfCRTDd2 control
PfCRT-mediated [3H]CQ transport, trans-stimulation (% PfCRTEcu1110 control) [2, 7]: 130 ± 3.3 % PfCRTEcu1110 control
PfCRT-mediated [3H]CQ transport, trans-stimulation (% PfCRTEcu1110 control) [2, 8]: 139 ± 3.7 % PfCRTEcu1110 control
PfCRT-mediated [3H]CQ transport, trans-stimulation (% PfCRTDd2 control) [3, 7]: 100 ± 2.9 % PfCRTDd2 control
PfCRT-mediated [3H]CQ transport, trans-stimulation (% PfCRTDd2 control) [3, 8]: 110 ± 3.7 % PfCRTDd2 control
PfCRT-mediated [3H]CQ transport, trans-stimulation (% PfCRT3D7 control) [4, 7]: 130 ± 5.2 % PfCRT3D7 control
PfCRT-mediated [3H]CQ transport, trans-stimulation (% PfCRT3D7 control) [4, 8]: 181 ± 5.2 % PfCRT3D7 control
[3H]CQ transport, PfCRT3D7 (% PfCRT3D7 control) ([4]; Experiment 1): 184.56 % PfCRT3D7 control
[3H]CQ transport, PfCRT3D7 (% PfCRT3D7 control) ([4]; Experiment 2): 199.32 % PfCRT3D7 control
[3H]CQ transport, PfCRT3D7 (% PfCRT3D7 control) ([4]; Experiment 3): 173.32 % PfCRT3D7 control
[3H]CQ transport, PfCRT3D7 (% PfCRT3D7 control) ([4]; Experiment 4): 194.32 % PfCRT3D7 control
PfCRT-mediated [3H]CQ transport, cis-inhibition (% PfCRTEcu1110 control) ([5]; [test solute] = 0.5 mM): 58 ± 1.2 % PfCRTEcu1110 control
PfCRT-mediated [3H]CQ transport, cis-inhibition (% PfCRTEcu1110 control) ([5]; [test solute] = 1 mM): 42 ± 2.6 % PfCRTEcu1110 control
PfCRT-mediated [3H]CQ transport, cis-inhibition (% PfCRTEcu1110 control) ([5]; [test solute] = 2 mM): 28 ± 2.4 % PfCRTEcu1110 control
PfCRT-mediated [3H]CQ transport, cis-inhibition (% PfCRTDd2 control) ([6]; [test solute] = 0.5 mM): 47 ± 3.9 % PfCRTDd2 control
PfCRT-mediated [3H]CQ transport, cis-inhibition (% PfCRTDd2 control) ([6]; [test solute] = 1 mM): 31 ± 2.1 % PfCRTDd2 control
PfCRT-mediated [3H]CQ transport, cis-inhibition (% PfCRTDd2 control) ([6]; [test solute] = 2 mM): 12 ± 0.9 % PfCRTDd2 control

AHAGEYGAEALE [AE-12]
[3H]CQ transport, PfNT1 (% PfCRTDd2 control) ([1]; Experiment 1): 2.23 % PfCRTDd2 control
[3H]CQ transport, PfNT1 (% PfCRTDd2 control) ([1]; Experiment 2): 2.37 % PfCRTDd2 control
[3H]CQ transport, PfNT1 (% PfCRTDd2 control) ([1]; Experiment 3): 2.71 % PfCRTDd2 control
[3H]CQ transport, PfNT1 (% PfCRTDd2 control) ([1]; Experiment 4): 2.43 % PfCRTDd2 control
[3H]CQ transport, PfCRT3D7 (% PfCRT3D7 control) ([4]; Experiment 1): 100.93 % PfCRT3D7 control
[3H]CQ transport, PfCRT3D7 (% PfCRT3D7 control) ([4]; Experiment 2): 94.28 % PfCRT3D7 control
[3H]CQ transport, PfCRT3D7 (% PfCRT3D7 control) ([4]; Experiment 3): 100.75 % PfCRT3D7 control
[3H]CQ transport, PfCRT3D7 (% PfCRT3D7 control) ([4]; Experiment 4): 102.32 % PfCRT3D7 control

VHLTPEEK [VK-8]
PfCRT-mediated [3H]CQ transport, trans-stimulation (% PfCRTEcu1110 control) [2, 7]: 98 ± 2.9 % PfCRTEcu1110 control
PfCRT-mediated [3H]CQ transport, trans-stimulation (% PfCRTEcu1110 control) [2, 8]: 100 ± 4.2 % PfCRTEcu1110 control
PfCRT-mediated [3H]CQ transport, trans-stimulation (% PfCRTDd2 control) [3, 7]: 100 ± 3.4 % PfCRTDd2 control
PfCRT-mediated [3H]CQ transport, trans-stimulation (% PfCRTDd2 control) [3, 8]: 98 ± 2.3 % PfCRTDd2 control
PfCRT-mediated [3H]CQ transport, trans-stimulation (% PfCRT3D7 control) [4, 7]: 132 ± 3.2 % PfCRT3D7 control
PfCRT-mediated [3H]CQ transport, trans-stimulation (% PfCRT3D7 control) [4, 8]: 166 ± 4.2 % PfCRT3D7 control
PfCRT-mediated [3H]CQ transport, cis-inhibition (% PfCRTEcu1110 control) ([5]; [test solute] = 0.5 mM): 64 ± 2.7 % PfCRTEcu1110 control
PfCRT-mediated [3H]CQ transport, cis-inhibition (% PfCRTEcu1110 control) ([5]; [test solute] = 1 mM): 49 ± 3.1 % PfCRTEcu1110 control
PfCRT-mediated [3H]CQ transport, cis-inhibition (% PfCRTEcu1110 control) ([5]; [test solute] = 2 mM): 41 ± 2.3 % PfCRTEcu1110 control
PfCRT-mediated [3H]CQ transport, cis-inhibition (% PfCRTDd2 control) ([6]; [test solute] = 0.5 mM): 69 ± 3.1 % PfCRTDd2 control
PfCRT-mediated [3H]CQ transport, cis-inhibition (% PfCRTDd2 control) ([6]; [test solute] = 1 mM): 63 ± 5.2 % PfCRTDd2 control
PfCRT-mediated [3H]CQ transport, cis-inhibition (% PfCRTDd2 control) ([6]; [test solute] = 2 mM): 25 ± 0.3 % PfCRTDd2 control

VVYPWTQR [VR-8]
PfCRT-mediated [3H]CQ transport, trans-stimulation (% PfCRTEcu1110 control) [2, 7]: 97 ± 1.8 % PfCRTEcu1110 control
PfCRT-mediated [3H]CQ transport, trans-stimulation (% PfCRTEcu1110 control) [2, 8]: 98 ± 3.7 % PfCRTEcu1110 control
PfCRT-mediated [3H]CQ transport, trans-stimulation (% PfCRTDd2 control) [3, 7]: 96 ± 1.4 % PfCRTDd2 control
PfCRT-mediated [3H]CQ transport, trans-stimulation (% PfCRTDd2 control) [3, 8]: 95 ± 1.5 % PfCRTDd2 control
PfCRT-mediated [3H]CQ transport, trans-stimulation (% PfCRT3D7 control) [4, 7]: 96 ± 2.8 % PfCRT3D7 control
PfCRT-mediated [3H]CQ transport, trans-stimulation (% PfCRT3D7 control) [4, 8]: 98 ± 2.9 % PfCRT3D7 control
PfCRT-mediated [3H]CQ transport, cis-inhibition (% PfCRTEcu1110 control) ([5]; [test solute] = 0.5 mM): 42 ± 2.6 % PfCRTEcu1110 control
PfCRT-mediated [3H]CQ transport, cis-inhibition (% PfCRTEcu1110 control) ([5]; [test solute] = 1 mM): 32 ± 1.9 % PfCRTEcu1110 control
PfCRT-mediated [3H]CQ transport, cis-inhibition (% PfCRTEcu1110 control) ([5]; [test solute] = 2 mM): 21 ± 1.4 % PfCRTEcu1110 control
PfCRT-mediated [3H]CQ transport, cis-inhibition (% PfCRTDd2 control) ([6]; [test solute] = 0.5 mM): 40 ± 3.2 % PfCRTDd2 control
PfCRT-mediated [3H]CQ transport, cis-inhibition (% PfCRTDd2 control) ([6]; [test solute] = 1 mM): 22 ± 1.1 % PfCRTDd2 control
PfCRT-mediated [3H]CQ transport, cis-inhibition (% PfCRTDd2 control) ([6]; [test solute] = 2 mM): 11 ± 0.8 % PfCRTDd2 control

DMPNALS [DS-7, host-derived peptide upstream of PL-4]
PfCRT-mediated [3H]CQ transport, trans-stimulation (% PfCRTEcu1110 control) [2, 7]: 128 ± 3.1 % PfCRTEcu1110 control
PfCRT-mediated [3H]CQ transport, trans-stimulation (% PfCRTEcu1110 control) [2, 8]: 135 ± 4.2 % PfCRTEcu1110 control
[3H]CQ transport (% PfCRTDd2 control), trans-stimulation, PfCRTEcu1110 [2, 9]: 39 ± 1.6 % PfCRTEcu1110 control
[3H]CQ transport (% PfCRTDd2 control), trans-stimulation, PfCRTEcu1110 [2, 10]: 41 ± 1.9 % PfCRTEcu1110 control
PfCRT-mediated [3H]CQ transport, trans-stimulation (% PfCRTDd2 control) [3, 7]: 97 ± 3.6 % PfCRTDd2 control
PfCRT-mediated [3H]CQ transport, trans-stimulation (% PfCRTDd2 control) [3, 8]: 112 ± 3.5 % PfCRTDd2 control
[3H]CQ transport (% PfCRTDd2 control), trans-stimulation, PfCRTDd2 [3, 9]: 97 ± 3.6 % PfCRTDd2 control
[3H]CQ transport (% PfCRTDd2 control), trans-stimulation, PfCRTDd2 [3, 10]: 112 ± 3.5 % PfCRTDd2 control
PfCRT-mediated [3H]CQ transport, trans-stimulation (% PfCRT3D7 control) [4, 7]: 136 ± 4.1 % PfCRT3D7 control
PfCRT-mediated [3H]CQ transport, trans-stimulation (% PfCRT3D7 control) [4, 8]: 188 ± 4.6 % PfCRT3D7 control
PfCRT-mediated [3H]CQ transport, cis-inhibition (% PfCRTEcu1110 control) ([5]; [test solute] = 0.5 mM): 51 ± 4.1 % PfCRTEcu1110 control
PfCRT-mediated [3H]CQ transport, cis-inhibition (% PfCRTEcu1110 control) ([5]; [test solute] = 1 mM): 48 ± 1.4 % PfCRTEcu1110 control
PfCRT-mediated [3H]CQ transport, cis-inhibition (% PfCRTEcu1110 control) ([5]; [test solute] = 2 mM): 29 ± 1.5 % PfCRTEcu1110 control
[3H]CQ transport (% PfCRTEcu1110 control), cis-inhibition, PfCRTEcu1110 ([5]; [test solute] = 0.5 mM): 16 ± 0.2 % PfCRTEcu1110 control
[3H]CQ transport (% PfCRTEcu1110 control), cis-inhibition, PfCRTEcu1110 ([5]; [test solute] = 1 mM): 15 ± 0.4 % PfCRTEcu1110 control
[3H]CQ transport (% PfCRTEcu1110 control), cis-inhibition, PfCRTEcu1110 ([5]; [test solute] = 2 mM): 9.0 ± 0.05 % PfCRTEcu1110 control
PfCRT-mediated [3H]CQ transport, cis-inhibition (% PfCRTDd2 control) ([6]; [test solute] = 0.5 mM): 49 ± 1.1 % PfCRTDd2 control
PfCRT-mediated [3H]CQ transport, cis-inhibition (% PfCRTDd2 control) ([6]; [test solute] = 1 mM): 41 ± 1.0 % PfCRTDd2 control
PfCRT-mediated [3H]CQ transport, cis-inhibition (% PfCRTDd2 control) ([6]; [test solute] = 2 mM): 27 ± 0.2 % PfCRTDd2 control
